Data from US6451839B1, “Indole sPLA2 inhibitors” (Eli Lilly and Company, priority 1998, dated 2002).
pIC50: −log10 of the molar value.

Target: T1, recombinant human secreted phospholipase A2 (Homo sapiens, UniProt P14555)
T1 sequence (P14555 21-144): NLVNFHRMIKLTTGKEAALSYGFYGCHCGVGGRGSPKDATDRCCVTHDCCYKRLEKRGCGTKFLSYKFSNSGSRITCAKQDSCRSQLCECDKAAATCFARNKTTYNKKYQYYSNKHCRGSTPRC
Assay: chromogenic assay of recombinant human secreted phospholipase A2 inhibition
Type: biochemical
Conditions: diheptanoyl thio-PC substrate, pH 7.5, 40° C. for 30 minutes, absorbance at 405 nanometers, triplicate; read-out: Inhibition of human secreted PLA2 IC50 ± mean deviation
Source text: The following chromogenic assay procedure was used to identify and evaluate inhibitors of recombinant human secreted phospholipase A2. The assay described herein has been adapted for high volume screening using 96 well microtiter plates. A general description of this assay method is found in the article, “Analysis of Human Synovial Fluid Phospholipase A2 on Short Chain Phosphatidylcholine-Mixed Micelles: Development of a Spectrophotometric Assay Suitable for a Microtiterplate Reader”, by Laure J. Reynolds, Lori L. Hughes, and Edward A Dennis, Analytical Biochemistry, 204, pp. 190-197, 1992 (the disclosure of which is incorporated herein by reference):
RACEMIC DIHEPTANOYL THIO—PC
racemic 1,2-bis(heptanoylthio)-1,2-dideoxy-sn-glycero-3-phosphorylcholine
The reaction mixture thus obtained contains lmM diheptanoly thio-PC substrate, 0.29 mm Triton X-100™ detergent, and 0.12 mm DTMB in a buffered aqueous solution at pH 7.5.
1. Add 0.2 ml reaction mixture to all wells;
2. Add 10 ul test compound (or solvent blank) to appropriate wells, mix 20 seconds;
3. Add 50 nanograms of sPLA2 (10 microliters) to appropriate wells;
4. Incubate plate at 40° C. for 30 minutes;
5. Read absorbance of wells at 405 nanometers with an automatic plate reader.
All compounds were tested in triplicate. Typically, compounds were tested at a final concentration of 5 ug/ml. […] Lack of color development at 405 nanometers evidenced inhibition. Compounds initially found to be active were reassayed to confirm their activity and, if sufficiently active, IC50 values were determined. […] In all cases, % inhibition measured at 405 nanometers generated by enzyme reactions containing inhibitors relative to the uninhibited control reactions was determined. Each sample was titrated in triplicate and result values were averaged for plotting and calculation of IC50 values. IC50 were determined by plotting log concentration versus inhibition values in the range from 10-90% inhibition.

pIC50 | SMILES
7.31 | CCc1c(NC(N)=O)c2c(OCC(=O)O)cccc2n1Cc1ccccc1 [Example 1, [[2-Ethyl-1-(phenylmethyl)-3-ureido-1H-indol-4-yl]oxy]acetic acid]
4.19 | CCc1c(NC(C)=O)c2c(OCC(=O)O)cccc2n1Cc1ccccc1 [Example 2, [[3-Acetamido-2-ethyl-1-(phenylmethyl)-1H-indol-4-yl]oxy]acetic acid]
4.29 | CCc1c(NC(=O)C(F)(F)F)c2c(OCC(=O)O)cccc2n1Cc1ccccc1 [Example 3, [[3-trifluoroacetamido-2-ethyl-1-(phenylmethyl)-1H-indol-4-yl]oxy]acetic acid]
4.35 | CCc1c(NC(=O)CBr)c2c(OCC(=O)O)cccc2n1Cc1ccccc1 [Example 4, [[3-(Bromo)acetamido-2-ethyl-1-(phenylmethyl)-1H-indol-4-yl]oxy]acetic acid]
5.17 | CCc1c(NC(N)=S)c2c(OCC(=O)O)cccc2n1Cc1ccccc1 [Example 5, [[2-Ethyl-1-(phenylmethyl)-3-thioureido-1H-indol-4-yl]oxy]acetic acid]
4.89 | CCc1c(NC(=O)C(N)=O)c2c(OCC(=O)O)cccc2n1Cc1ccccc1 [Example 6, [[2-ethyl-3-oxamide-1-(phenylmethyl)-1H-indol-4-yl]oxy]acetic acid]
7.68 | CCc1c(NC(N)=O)c2c(OCC(=O)O)cccc2n1Cc1ccccc1-c1ccccc1 [Example 7, [[2-ethyl-1-(2-phenyl-phenylmethyl)-3-ureido-1H-indol-4-yl]oxy]acetic acid]
7.13 | CCc1c(NC(N)=O)c2c(OCC(=O)O)cccc2n1Cc1ccccc1Br [Example 8, [[2-ethyl-1-(2-bromo-phenylmethyl)-3-ureido-1H-indol-4-yl]oxy]acetic acid]
7.77 | CCc1c(NC(N)=O)c2c(OCC(=O)O)cccc2n1Cc1ccccc1-c1ccc(F)cc1 [Example 9, [[2-ethyl-1-(2-(4-fluorophenyl)-phenylmethyl)-3-ureido-1H-indol-4-yl]oxy]acetic acid]
